Data set [1] deals with Th1-type / Th2-type response. To be noted: literature cited in background; cited from earlier work.
The next data set has as its system CD8+ T cells. The data set can be described thus: CFSE proliferation assay of CD8+ T cells after interaction with Ova/adjuvant-matured bone marrow derived DCs (APC). The data set is classed as cell-based, mice. Conditions: for stimulating effect of CD8+ T cells versus controls with only antigen Ova: CFSE loss up to 7 days, DCs activated with Ova + 10 μg compound, FIG. 4C/4D. The text has this:
FIG. 3C: Cell proliferation tracked by CFSE dilution of CD8+ T cells after interaction with matured Antigen Presenting Cells (APC). With every cell division, the CFSE signal strength is approximately halved. The shown cell numbers indicate the ratio of proliferated live CD8+ T cells
(§1) FIG. 4: Effect after treatment with IPB 0964-1917—Cell proliferation tracked by CFSE loss of T cells after interaction with matured Antigen Presenting Cells (APC). With every cell division, the CFSE signal strength is reduced. The shown cell numbers indicate the ratio of proliferating T and B cells (7 steps are shown). (A) Numbers of CD4+ T cells are shown at different proliferation steps up to 7 days measuring the loss of CFSE. Naïve cells were treated with one of IPB1901-1912 together with DCs activated with Ova prior to the CFSE assay. (B) Numbers of CD4+ T cells are shown at different proliferation steps up to 7 days measuring the loss of CFSE. Naïve cells were treated with one of IPB2033-2044 together with DCs activated with Ova prior to the CFSE assay. (C) Numbers of CD8+ T cells are shown at different proliferation steps up to 7 days measuring the loss of CFSE. Naïve cells were treated with one of IPB1901-1912 together with DCs activated with Ova prior to the CFSE assay. (D) Numbers of CD8+ T cells are shown at different proliferation steps up to 7 days measuring the loss of CFSE. Naïve cells were treated with one of IPB2033-2044 together with DCs activated with Ova prior to the CFSE assay.
(§2) In order to assess the properties of the inventive compounds in antigen-specific T and B cell stimulation, the compounds were administered to cultured bone marrow cells in a CFSE assay.
(§3) Briefly, femurs and Tibiae of female 4-12 weeks old C57Bl6 (or BALB/c for TCR HA) were removed and purified from the surrounding muscle tissue (Kleenex tissues). Intact Bones were left in 70% ethanol for 2-5 min for disinfection. Both ends were cut with scissors and the bone marrow were flushed with PBS using a syringe with a 0.45 mm diameter needle, clusters were disintegrated by vigorous pipetting.
(§4) In order to obtain activated antigen presenting dendritic cells (DCs), bone marrow cells were cultured with GM-CSF. On Day 0, cells were seeded in a concentration of 2×10^6 cells per 100 mm dish (bacteriological petri dishes) in 10 ml RPMI-10 (100 U Pen/100 μg Strept/2 mM Glutamin/50 μm ß-Mercaptoethanol/10% FCS heat-inactivated and filtered 0.22 μm Filter) containing 200 Units GM-CSF. On Day 3 another 10 ml RPMI-10 containing 200 U GM-CSF were added to the plates. On Day 6 half of the culture supernatants (10 ml) were collected, centrifuged and the cell pellet resuspended in 10 ml fresh RPMI-10/200 U GM-CSF and given back into the original plates.
(§5) Subsequently, the DCs were incubated with Ovalbumin (as antigen) alone or co-administered with known adjuvants, such as α-GalCerMPEG, aßGalCerMPEG or TLR2/6 ligand (BPPcysMPEG), or the novel phytosphingosine derivatives of the present invention. The activation of DCs was controlled by FACS analysis of different CD markers, such as CD40, CD54, CD80, CD86, CD83, MHCI and MHCII.
(§6) The effect of the compounds of the present invention was then ascertained via co-incubation of naïve T or B cells, obtained from mice (OTI or OTII mice) with previous exposure to the Ova antigen, with DCs that had been treated with the compounds of the invention.
(§7) Naïve T cells were derived from LN/spleen from OTI or OTII mice. The MagniSort™ Mouse CD4 naïve or CD8 naïve T cell Enrichment Kit is designed for the magnetic separation of CD4 or CD8 naïve T cells by negative selection from mouse spleens or lymph nodes utilizing a biotinylated antibody cocktail and streptavidin-coated magnetic beads. Undesired cells are bound by antibody (Anti-Mouse CD8 or CD4/CD11b CD19/CD24/CD44/CD45R(B220)/CD49b(Integrin α 2)/Ly-6G (Gr-1)/γδ TCR/TER-119) and then magnetic beads that, when placed in a magnetic field, leave CD4 or CD8 naïve T cells untouched and free in solution. […]

The next data set has as its system splenocytes. The data set can be described thus: Unspecific proliferation assay of splenocytes ([3H]thymidine incorporation). The class given is cell-based, mice. Conditions: for Stimulation index (SI): splenocytes restimulated 96 h with 1, 10 and 20 μg/ml compound, ratio of [3H]-thymidine uptake of stimulated versus non-stimulated samples, FIG. 2E/2F; for induction of unspecific proliferation in splenocytes: summary statement. On the procedure:
FIG. 2: Analysis of unspecific proliferative responses of murine cells stimulated without or with enhanced concentrations of the Phytosphingosine-compounds. Splenocytes from mice were re-stimulated for 96 h with different concentrations of adjuvant (1, 10 and 20 μg/ml). The results are presented by are expressed (A-C) as counts per minute (cpm) and (D-F) stimulation index (SI) being the ratio of [^3H]-thymidine uptake of stimulated versus non-stimulated samples. (A) and (D) show data for α-GalCer controls, (B) and (E) show data for IPB1901-1910, and (C) and (F) show data for IPB1911-1917.
In order to assess the properties of the inventive compounds in antigen-unspecific immune response stimulation the compounds were administered to splenocytes in an established proliferation assay.
For the proliferation assay, splenocytes (5×10^6 cells/ml) are seeded at 100 μl per well in a U-bottomed 96-well microtiter plate (Sarstedt Inc., Newton, N.C.) and cultured in quadruplicates 4 days in the presence of enhanced concentrations of adjuvant (1, 10 and 20 μg/ml)), 5 μg/ml of Concanavalin A (max); or medium alone. Eighteen hours before harvesting, 1 μCi of [3H]thymidine (Amersham International, Freiburg, Germany) is added to each well. Cells are harvested on paper filters (Filtermat A; Wallac, Freiburg, Germany) using a cell harvester (Inotech, Wohlen, Switzerland) and the incorporation of [3H] thymidine into the DNA of proliferating cells is determined using a scintillation counter (Wallac 1450, Micro-Trilux).

The test system of the next data set is CD4+ T cells. The data set is described as follows: CFSE proliferation assay of CD4+ T cells after interaction with Ova/adjuvant-matured bone marrow derived DCs (APC). The class given is cell-based, mice. Conditions: for stimulating effect of CD4+ T cells versus controls with only antigen Ova: CFSE loss up to 7 days, DCs activated with Ova + 10 μg compound, FIG. 4A/4B; for capacity to induce antigen specific CD4+ T cell proliferation: DCs restimulated with Ovalbumin + 10 μg compound for 24 h, interaction with APC for 5 days.
From the text: FIG. 3B: Cell proliferation tracked by CFSE dilution of CD4+ T cells after interaction with matured Antigen Presenting Cells (APC). With every cell division, the CFSE signal strength is approximately halved. The shown cell numbers indicate the ratio of proliferated live CD4+ T cells.
as §1, §2, §3, §4, §5, §6, §7

A further data set relates to CD19+ B cells. The data set is described as follows: CFSE proliferation assay of CD19+ B cells after interaction with Ova/adjuvant-matured bone marrow derived DCs (APC). The data set is classed as cell-based, mice. To be noted: FIG. 3A; for toxicity against B cells: effect not comparable to adjuvant controls. The procedure:
FIG. 3A: Cell proliferation tracked by CFSE dilution of B cells after interaction with matured Antigen Presenting Cells (APC). With every cell division, the CFSE signal strength is approximately halved. The observed cell numbers indicate the ratio of proliferating viable CD19+ B cells.
as §2, §3, §4, §5, §6
CFSE staining of the CD4+ or CD8+ naïve T cells is then carried out according to standard procedures. Subsequently, 2-5×10^4 DCs (as mature antigen presenting cells APCs) are incubated with 4×10^5 CFSE+ T cells (OTI or OTII) per well (ratio DC/T cells is […]). A CFSE proliferation assay is then conducted, using on Day +5 or on Day +7 a FACS analysis (CFSE/LD/CD4/CD8/CD19/Thy1.1), providing a cell count for the desired cell type based on CFSE. With every cell division, the CFSE signal strength is approximately halved. The cells marked with CFSE can therefore be used to determine the proliferation of CD19+ B cells, CD4+ or CD8+ T cells in response to treatment with activated DCs, that were treated with or without the compounds of the invention.
As is shown in FIG. 3A, cell proliferation of B cells is tracked by CFSE dilution after interaction with APCs. With every cell division, the CFSE signal strength is approximately halved. Therefore, the compounds of the invention show an effect on inducing antigen specific CD19+ cell proliferation.
On day −1, mature DCs were restimulated with Ovalbumin (antigen) co-administered with 10 μg of the different novel phytosphingosine derivatives (0964-1917) or with positive controls (α-GalCerMPEG, aßGalCerMPEG, CDA or BPPcysPEGdef) for 24 h.

Entries after “also recorded” stand apart in the source; their conditions may differ.

For the compound `CCCCCCCCCCCCCC[C@@H](O)[C@@H](O)[C@H](CO[C@H]1O[C@H](CO)[C@H](O)[C@H](O)[C@H]1O)NC(=O)CCCCCCCCCCc1ccc(F)cc1` [7DW8-5], in data set [1], the “type of response elicited (Th1 / Th2)” value is given as “elicit a Th1 response”.
Turning to `CCCCCCCCCCCCCC[C@@H](O)[C@@H](O)[C@H](CO[C@H]1OC(CO)[C@H](O)C(O)C1O)N(CC(=O)NCCCCCCCCCCCC)C(=O)CCCCCCCCCCCCC` (stereo partly drawn) [IPB 1901], the “stimulating effect of CD8+ T cells versus controls with only antigen Ova” value in the data set with CD8+ T cells is “stimulating effect of CD8+ T cells beyond controls”. In the data set with splenocytes, the “Stimulation index (SI)” value came out at 4 and the “induction of unspecific proliferation in splenocytes” value (shortened to “induction”) is on record as “beneficial induction of unspecific proliferation”. Further, in the data set with CD4+ T cells, the “stimulating effect of CD4+ T cells versus controls with only antigen Ova” value is “stimulating effect of CD4+ T cells beyond controls”. Further, the “toxicity against B cells” value in the data set on CD19+ B cells is given as “may show some toxicity against B cells”.
As for `CCCCCCCCCCCCCC[C@@H](O)[C@@H](O)[C@H](CO[C@H]1OC(CO)[C@H](O)C(O)C1O)N(CC(=O)NCc1ccccc1)C(=O)CCCCCCC` (stereo partly drawn) [IPB 1902], in the data set on CD8+ T cells, the “stimulating effect of CD8+ T cells versus controls with only antigen Ova” value is “stimulating effect of CD8+ T cells beyond controls”. Further, in the data set on splenocytes, the “induction” value was “beneficial induction of unspecific proliferation”. For the same compound, in the data set with CD4+ T cells, the “stimulating effect of CD4+ T cells versus controls with only antigen Ova” value was “stimulating effect of CD4+ T cells beyond controls”. Moreover, the “toxicity against CD4+ T cells” value in the data set with CD4+ T cells (FIG. 3B, no improved effect over adjuvant controls) is recorded as “may show some toxicity against CD4+ T cells”. Also, in the data set with CD19+ B cells, the “toxicity against B cells” value is listed as “may show some toxicity against B cells”.
Turning to `CCCCCCCCCCCCCC[C@@H](O)[C@@H](O)[C@H](CO[C@H]1OC(CO)[C@H](O)C(O)C1O)N(CC(=O)NC1CCCCC1)C(=O)CCCCCCCCCCC` (stereo partly drawn) [IPB 1903], in the data set with CD8+ T cells, the “stimulating effect of CD8+ T cells versus controls with only antigen Ova” value is “stimulating effect of CD8+ T cells beyond controls”. For the same compound, in the data set on splenocytes, the “Stimulation index (SI)” value is > 10 and the “induction” value was “beneficial induction of unspecific proliferation”. The “stimulating effect of CD4+ T cells versus controls with only antigen Ova” value in the data set with CD4+ T cells was “stimulating effect of CD4+ T cells beyond controls”. The “capacity to induce antigen specific CD4+ T cell proliferation” value in the data set with CD4+ T cells (FIG. 3B) is listed as “high capacity; also recorded: beneficial capacity”. In addition, in the data set with CD19+ B cells, the “toxicity against B cells” value is listed as “may show some toxicity against B cells”.
For the compound `CCCCCCCCCCCCCCCCCC(=O)N(CC(=O)NCCC(=O)OC(C)(C)C)[C@@H](CO[C@H]1OC(CO)[C@H](O)C(O)C1O)[C@H](O)[C@H](O)CCCCCCCCCCCCCC` (stereo partly drawn) [IPB 1909], the “effect to induce antigen specific CD8+ T cell proliferation” value with CD8+ T cells (DCs restimulated with Ovalbumin + 10 μg compound for 24 h, interaction with APC for 5 days, FIG. 3C) is given as “strong effect; also recorded: beneficial effect”. The “capacity to induce antigen specific CD4+ T cell proliferation” value with CD4+ T cells (FIG. 3B) is reported as “high capacity; also recorded: beneficial capacity”. In the data set on CD19+ B cells (DCs restimulated with Ovalbumin + 10 μg compound for 24 h, interaction with APC for 5 days), the “capacity to induce antigen specific CD19+ B cell proliferation” value is listed as “particularly high capacity; also recorded: beneficial capacity”.
Take `CCCCCCCCCCCCCCCCCCCCCCCC(=O)N[C@@H](CO[C@H]1O[C@H](CO)[C@H](O)[C@H](O)[C@H]1O)[C@H](O)[C@H](O)CCCCC` [OCH]: the “type of response elicited (Th1 / Th2)” value in data set [1] is reported as “elicit a Th2-type response”.

The values are drawn from patent US12564631B2, “Phytosphingosine derivatives as adjuvants in immune stimulation” (Helmholtz-Zentrum für Infektionsforschung GmbH, priority 2020, dated 2026).
